Where a SMILES comes first, the peptide text is derived from it. Bridges are numbered along the chain shown (N, C = ends).
Tests used:
[1] = tested on: CRE and non-CRE strains of K. pneumoniae and E. coli; assay type: cell-based; conditions: standard CLSI assay conditions
Experimental: Bacterial strains were obtained from American Type Culture Collection. K. pneumoniae strains included BAA-1705 (blaKPC-2, hypermucoid), BAA-2146 (blaNDM-1), BAA-700603 (SHV-18, extended spectrum β-lactamase, ESBL), and BAA-1706 (non-CRE reference strain). E. coli strains included BAA-2340 (blaKPC-2), BAA-2471 (blaNDM-1), and ML35 (non-CRE reference strain).
Minimum inhibitory concentration (MIC) assays were performed ± 50% heat-inactivated mouse serum using Clinical and Laboratory Standards Institute (CLSI; document M07-A9) protocols. Bacteria (5 × 10^5 CFU/ml) were incubated with antibiotics or peptide for 20 h at 37 °C, and bacterial growth was determined by A620 using a SpectraMax M5e plate reader.

[2] = Single dose pharmacokinetics (plasma and peritoneal fluid); assay type: in vivo, BALB/c mice; conditions: both sexes, mouse, ip, 1.25 mg/kg single i.p., LC-MS/MS
Experimental: Single dose PK of MTD12813 was evaluated by quantifying plasma peptide concentrations following 1.25 mg/kg injections administered i.p. to 2 M/2F BALB/c mice. EDTA plasma was prepared from blood collected aseptically by terminal cardiac puncture. MTD12813 plasma concentrations were determined by reverse-phase liquid chromatography (XBridge phenyl 3.5 µm column, Waters) on an Acquity H-Class UPLC (Waters) with tandem electrospray mass spectroscopy on a Xevo TQ-S running MassLynx V4.1 (Waters). Quantitative mass spectroscopy was performed by multiple-reaction monitoring transition 394.04 > 519.35, with area under the curve determined by TargetLynx (Waters).
Cryopreserved Kp-1705 was suspended in PBS to a density of ca. 1 × 10^9 CFU/ml, and incubated with saline or 1.25 µg/ml MTD12813 at room temperature for 1 h. […] In vitro antibacterial activity of MTD12813 (1.25 μg/ml) -treated cells (1 h; 37 °C) was determined by plating saline or peptide treated cells on TSA plates. Growth kinetics of saline and MTD12813-treated cells was determined by diluting samples from the 1 h incubation mixtures 1:40 into TSB and monitoring growth (620 nm) for 5.5 h at 37 °C. Antibacterial activity of MTD12813 in PF was determined by i.p. injection of naïve male BALB/c mice (n = 5 per group) with 1.25 mg/kg of MTD12813 or saline i.p. (10 ml/kg). […]

[3] = Peptide stability with log-phase Kp-1705 (bacterial proteases); assay type: in vitro ADME, K. pneumoniae; conditions: suspension of log-phase Kp-1705 bacteria, log-phase Kp-1705 (5 × 10^7 CFU/ml), 50 mM HEPES pH 7.4, 37 °C, LC–MS/MS, read-out: MTD12813 found intact
Experimental: (§1) MTD12813 (final concentration of 100 µg/ml) was added to either 90% human EDTA plasma or 90% human serum and incubated at 37 °C for 48 h. Samples were processed by addition of 10% HOAc and 5% ACN (final concentrations) at time 0 and 48 h, and MTD12813 was quantified by C18 RP-HLPC on an Acquity H-Class UPLC with an analytical PDA detector using Empower 3 software (Waters). All samples were performed with technical replicates and analyzed by UPLC in duplicate and the experiment repeated once. […] A time 0 h sample was collected, and the remaining suspension incubated at 37 °C for 24 h. Samples were processed by addition of 5% formic acid/5% acetonitrile, vortexed, and clarified at 22,000×g for 10 min. Supernatant MTD12813 was then quantified by LC–MS/MS as described in PK section above. All samples were performed with technical replicates and analyzed by LC–MS/MS in duplicate.

[4] = Peptide stability with log-phase E. coli ATCC-BAA-2340 (bacterial proteases); assay type: in vitro ADME; conditions: suspension of log-phase E. coli ATCC-BAA-2340 bacteria, log-phase E. coli ATCC-BAA-2340, 50 mM HEPES, 37 °C, LC–MS/MS, read-out: MTD12813 found intact
Experimental: as §1

SMILES: CC[C@H](C)[C@@H]1NC(=O)[C@@H]2CSSC[C@H](NC(=O)[C@H]([C@@H](C)CC)NC(=O)[C@@H]3CSSC[C@H](NC1=O)C(=O)N[C@@H](C(C)C)C(=O)NCC(=O)N[C@@H](CCCNC(=N)N)C(=O)NCC(=O)N3)C(=O)N[C@@H](C(C)C)C(=O)N[C@@H](CCCNC(=N)N)C(=O)N[C@@H](CCCNC(=N)N)C(=O)N[C@@H](CCCNC(=N)N)C(=O)N2 [MTD12813] (cyclo(CICVGRGCICVRRR); disulfide 1-10, 3-8)
- MIC against all seven organisms of the panel [1]: 3.13 to 6.25 µg/mL
- Cmax ([2]; naïve BALB/c mice (2M/2F per time point), EDTA plasma, read-out: peak plasma concentration (Cmax)): 251 ± 79.8 ng/mL
- Tmax ([2]; naïve male and female BALB/c mice (2M/2F per time point), plasma): 15 min
- remaining at 24 h, 1.25 µg/ml [3]: 72.4 ± 0.93%
- remaining at 24 h, 1.25 µg/ml [4]: 81.3 ± 2.1%
